Tests used:
Type in all cases: cell-based
[1] = test system: U373 (human glioblastoma); experiment: Test on cell proliferation (MTT test), U373; settings: 72 hours
Protocol: (§1) a. Eight tumoral cell lines are used in this study: L1210 (mouse lymphocytic leukemia), HCT15 and LOVO (cell lines of human colon adenocarcinoma), A549 (human lung carcinoma), A172, U373 et U87 (human glioblastoma). All these lines are obtained from the American Type Culture Collection (ATCC), Rockville, Md. The L1210 cell cultures in suspension are cultured in Dulbecco's modified Eagle's medium (DMEM) (BioWhitaker, Verviers, Belgium) together with 10% of foetal calf serum inactivated by heating, 2 mM of glutamine, 50 μg/ml of penicillin and 50 μg/ml of streptomycin. The HT29 cells are cultured in mono-layer cultures in a McCoy 5a medium (Gibco, Paisley, United Kingdom) together with 10% of foetal calf serum inactivated by heat plus 2 mM of glutamine and 50 μg/ml of gentamycin. The other cells are cultured in an Earle's modified essential medium (EMEM; Gibco, Paisley, United Kingdom) together with 5% foetal calf serum inactivated by heat, 2 mM of glutamine, 50 U/ml of penicillin and 50 μg/ml of streptomycin. All the cell lines are cultured at 37° C. in a humidified atmosphere containing 95% air and 5% CO2.
(§2) Inhibition of the tumor cell line proliferation is determined using an MTT test. 1500 L1210 cells in a culture medium (according to the needs of the cell medium) are seeded in a well of a micro-well plate (tissue culture level: 96 wells, flat bottom) 24 hours before treatment with the compounds to be tested. For these dose-response studies, the cells are incubated with each of the compounds to be tested or their corresponding solvent (controls) for 48 hours over a final concentration range of 1.10^−10 to 1.10^−4 M. All the compounds are dissolved just before use in dimethylsulphoxide (DMSO) at a concentration of 50 mM. Other dilutions of the medicaments are carried out in the culture medium. The final concentration of DMSO never exceeds 0.2% (v/v). As controls, the solutions of medicaments are replaced with the solvent which is diluted successively in the same way as the compounds to be tested.
(§3) After the incubation period, the labeling reagent MTT (3-[4,5-dimethylthiazol-2-yl]-2,5-diphenyltetrazolium bromide; Thiazol blue, Sigma M 565, Sigma, St Louis, Mo.) is added at a final concentration of 0.3 mg/ml to each well. The cells are incubated for 4 hours at 37° C. in a humidified atmosphere. This stage allows the mitochondrial dehydrogenase of the living cells to convert the yellow tetrazolium salt MTT into crimson formazan crystals. The supernatant part is eliminated and the formazan crystals formed are solubilized with DMSO. The resultant coloured solution is quantified by absorbance at 570 nm by using a multi-cuvette scanning spectrophotometer. The data concerning the proliferation is expressed as a percentage of living cells in the treated wells, divided by the living cells in the controls. Each point represents the average of three independent experiments, each experiment represents six determinations.
(§4) For the other cell lines (HCT15, LOVO, A549, A172, U373, U87), 1000 to 2000 cells are seeded in the well of a micro-well plate 24 hours before medicinal treatment. […]
(§5) The results are expressed as percentages of the calculated proliferation by the optical density (OD) of the cells treated with a medicament divided by the OD of the control cells (cells treated with DMSO). As represented in Table II, the compounds to be tested have inhibited the proliferation of cells in a dose-dependent manner.

[2] = test system: A549 (human lung carcinoma); experiment: Test on cell proliferation (MTT test), A549; settings: 72 hours
Protocol: as §1, §2, §3, §4, §5

[3] = test system: LOVO (cell lines of human colon adenocarcinoma); experiment: Test on cell proliferation (MTT test), LOVO; settings: 72 hours
Protocol: as §1, §2, §3, §4, §5

[4] = test system: L1210 (mouse lymphocytic leukemia); experiment: Test on cell proliferation (MTT test), L1210; settings: 48 hours
Protocol: as §1, §2, §3, §5

[5] = test system: A172 (human glioblastoma); experiment: Test on cell proliferation (MTT test), A172; settings: 72 hours
Protocol: as §1, §2, §3, §4, §5

U87 (human glioblastoma) = experiment: Test on cell proliferation (MTT test), U87; settings: 72 hours
Protocol: as §1, §2, §3, §4, §5

[6] = test system: HCT15 (cell lines of human colon adenocarcinoma); experiment: Test on cell proliferation (MTT test), HCT15; settings: 72 hours
Protocol: as §1, §2, §3, §4, §5

CCC(O)(CC(=O)O)c1cc2n(c(=O)c1CO)Cc1cc3ccccc3nc1-2 (stereo not shown) [Example 4, 3-hydroxy-3-[8-(hydroxymethyl)-9-oxo-9,11-dihydroindolizino [1,2-b]quinolin-7-yl]pentanoic acid]
PERCENTAGE OF CELL PROLIFERATION ([1]; 0.1 nM): 86.00% | PERCENTAGE OF CELL PROLIFERATION ([1]; 1 nM): 85.00% | PERCENTAGE OF CELL PROLIFERATION ([1]; 10 nM): 89.00% | PERCENTAGE OF CELL PROLIFERATION ([1]; 100 nM): 63.00% | PERCENTAGE OF CELL PROLIFERATION ([1]; 1 000 nM): 30.00% | PERCENTAGE OF CELL PROLIFERATION ([1]; 10 000 nM): 16.00% | PERCENTAGE OF CELL PROLIFERATION ([1]; 100 000 nM): 2.00% | PERCENTAGE OF CELL PROLIFERATION ([2]; 0.1 nM): 71.00% | PERCENTAGE OF CELL PROLIFERATION ([2]; 1 nM): 76.00% | PERCENTAGE OF CELL PROLIFERATION ([2]; 10 nM): 71.00% | PERCENTAGE OF CELL PROLIFERATION ([2]; 100 nM): 56.00% | PERCENTAGE OF CELL PROLIFERATION ([2]; 1 000 nM): 36.00% | PERCENTAGE OF CELL PROLIFERATION ([2]; 10 000 nM): 22.00% | PERCENTAGE OF CELL PROLIFERATION ([2]; 100 000 nM): 12.00% | PERCENTAGE OF CELL PROLIFERATION ([3]; 0.1 nM): 80.00% | PERCENTAGE OF CELL PROLIFERATION ([3]; 1 nM): 75.00% | PERCENTAGE OF CELL PROLIFERATION ([3]; 10 nM): 79.00% | PERCENTAGE OF CELL PROLIFERATION ([3]; 100 nM): 69.00% | PERCENTAGE OF CELL PROLIFERATION ([3]; 1 000 nM): 38.00% | PERCENTAGE OF CELL PROLIFERATION ([3]; 10 000 nM): 21.00% | PERCENTAGE OF CELL PROLIFERATION ([3]; 100 000 nM): 5.00% | PERCENTAGE OF CELL PROLIFERATION ([4]; 0.1 nM): 92.14% | PERCENTAGE OF CELL PROLIFERATION ([4]; 1 nM): 97.14% | PERCENTAGE OF CELL PROLIFERATION ([4]; 10 nM): 91.08% | PERCENTAGE OF CELL PROLIFERATION ([4]; 100 nM): 86.28% | PERCENTAGE OF CELL PROLIFERATION ([4]; 1 000 nM): 46.79% | PERCENTAGE OF CELL PROLIFERATION ([4]; 10 000 nM): 27.80% | PERCENTAGE OF CELL PROLIFERATION ([4]; 100 000 nM): 8.09% | PERCENTAGE OF CELL PROLIFERATION ([5]; 0.1 nM): 93.00% | PERCENTAGE OF CELL PROLIFERATION ([5]; 1 nM): 92.00% | PERCENTAGE OF CELL PROLIFERATION ([5]; 10 nM): 98.00% | PERCENTAGE OF CELL PROLIFERATION ([5]; 100 nM): 97.00% | PERCENTAGE OF CELL PROLIFERATION ([5]; 1 000 nM): 44.00% | PERCENTAGE OF CELL PROLIFERATION ([5]; 10 000 nM): 31.00% | PERCENTAGE OF CELL PROLIFERATION ([5]; 100 000 nM): 10.00% | PERCENTAGE OF CELL PROLIFERATION (U87 (human glioblastoma); 0.1 nM): 98.00% | PERCENTAGE OF CELL PROLIFERATION (U87 (human glioblastoma); 1 nM): 101.00% | PERCENTAGE OF CELL PROLIFERATION (U87 (human glioblastoma); 10 nM): 98.00% | PERCENTAGE OF CELL PROLIFERATION (U87 (human glioblastoma); 100 nM): 74.00% | PERCENTAGE OF CELL PROLIFERATION (U87 (human glioblastoma); 1 000 nM): 11.00% | PERCENTAGE OF CELL PROLIFERATION (U87 (human glioblastoma); 10 000 nM): 6.00% | PERCENTAGE OF CELL PROLIFERATION (U87 (human glioblastoma); 100 000 nM): 2.00% | PERCENTAGE OF CELL PROLIFERATION ([6]; 0.1 nM): 91.00% | PERCENTAGE OF CELL PROLIFERATION ([6]; 1 nM): 92.00% | PERCENTAGE OF CELL PROLIFERATION ([6]; 10 nM): 86.00% | PERCENTAGE OF CELL PROLIFERATION ([6]; 100 nM): 78.00% | PERCENTAGE OF CELL PROLIFERATION ([6]; 1 000 nM): 54.00% | PERCENTAGE OF CELL PROLIFERATION ([6]; 10 000 nM): 20.00% | PERCENTAGE OF CELL PROLIFERATION ([6]; 100 000 nM): 7.00%

Source: US6815546B2, “Analogues of camptothecin, their use as medicaments and the pharmaceutical compositions containing them” (Societe de Recherches et d'Applications Scientifiques …, priority 1995, dated 2004)
